In patent US20130302445A1, “APPARATUS AND METHOD FOR TREATING CEREBRAL ISCHEMIA USING NON-INHALED CARBON DIOXIDE” (priority 2012, published 2013):

Legend:
[1] = system: cerebral blood flow in rats; experiment: CO2 delivered into the lungs (systemic challenge); cerebral blood flow and arterial gases; format: in vivo; conditions: rat, delivery into lungs
Excerpt: (§1) Referring now to FIG. 3, it can be seen that the increase in cbf is attributable to focal intranasal or intra-oral effect rather than to systemic absorption of CO2. […] At this very high concentration, sufficient CO2 must be absorbed focally, intracranially, into the cerebral circulation to appear in measurable amounts in the systemic circulation. It cannot be concluded, therefore, that the increase in cbf is caused by a purely local action of CO2 rather than being secondary to systemic absorption. […] The effect on cbf during intranasal or intra oral delivery of CO2 with concomitant air inhalation into the lungs is therefore a focal effect on intranasal and intracranial vasculature rather than secondary to systemic absorption.

[2] = system: cerebral blood flow in rats; experiment: Intranasal or intra-oral delivery of non-inhaled CO2 with air ventilation through a tracheostomy; cerebral blood flow and arterial gases; format: in vivo; conditions: rat
Excerpt: When CO2 s inhaled through the nose or mouth into the pulmonary circulation, it passes into the systemic blood stream through the alveoli. Once it reaches the brain, it diffuses out into the csf to exert its effect. As more CO2 is inhaled into the lungs and absorbed into the systemic circulation, arterial CO2 concentration (PaCO2) rises, hydrogen ions are produced and arterial pH falls, creating an acidosis. Acidosis leads to narcosis, and ultimately coma and death. Less severe signs of CO2 inhalation in non-intubated patients include headaches, sweating and hyperventilation. […] Inhalation is prevented by ventilating the animal through a tracheostomy with air while delivering the experimental gas intranasally (or intra orally).
The increase is the same with 100% and with 50% gas concentration. […] Decline following discontinuation is somewhat slower than rise during delivery.
as §1

awake humans = experiment: Tolerability of intranasal CO2 delivery in awake humans; format: in vivo, human
Excerpt: While CO2 may be given to intubated, comatose individuals, the tolerability of intranasal gas delivery in awake humans has not previously been investigated. We have systematically tested the tolerability and effect of CO2 during intranasal delivery. CO2 elicits intense burning and stinging sensations which are intolerable above 16%. […] So individuals who are awake, such as stroke patients, these lower concentrations would be recommended. The current invention delivers CO2, or a combination of gases into the nasal or oral cavity but prevents its inhalation for the purposes of improving outcome from cerebral ischemia. […] In the embodiment with the anterior occlusion or “clip,” the CO2 could escape via a valve or exit tube or be suctioned out into a vacuumed container.

intubated patients = conditions: hypercarbia from reduced ventilation rate; cited from earlier work
[3] = 50% CO2 intranasal, air into lungs

In the case of `O=C=O` [CO2, carbon dioxide], the “arterial CO2 concentration when CO2 is delivered into the lungs” value [1] was “rapidly increases”, the “arterial pH when CO2 is delivered into the lungs” value [1] was “falls” and the “cbf when CO2 is delivered into the lungs” value [1] was “increases sharply”. For the same molecule, the “arterial pH, intranasal CO2 concentration 50%” value [2, 3] was “without any detectable increase in systemic PaCO2 or fall of pH”, the “cbf, intranasal CO2 concentration 50%” value [2, 3] was “doubles” and the “systemic PaCO2, intranasal CO2 concentration 50%” value [2, 3] was “without any detectable increase”. For the same molecule, the “cbf, 100% CO2 delivered intranasally” value ([2]; 100% CO2 intranasal) was “also increases”, the “systemic CO2, 100% CO2 delivered intranasally, compared with lung delivery” value ([2]; 100% CO2 intranasal) was “far less increase” and the “onset of cbf increase after start of delivery” value ([2]; intranasal or intra-oral, non-inhaled) was “within seconds”. For the same molecule, the “cbf during intranasal or intra-oral delivery of CO2” value ([2]; non-inhaled, increase the same with 100% and 50% gas concentration) was “more than doubled”, the “CO2 concentration above which burning and stinging sensations are intolerable” value (awake humans) was “above 16%” and the “tolerability of sensations at 16% CO2 or below” value (awake humans; 16% or below, sensations abate over a few minutes) was “quite tolerable”. The “increase in cbf per mm Hg increase in arterial CO2 over 45 mm” value (intubated patients) was 4%.
